Assay results taken from the OligoGym collection.
HELM strings list units from the 5' end as sugar, base in round brackets, then linkage (d deoxyribose, r ribose, m 2'-O-methyl, p phosphodiester). [sp] = phosphorothioate linkage

Key:
CDKN2B-AS1 [1] = test: HEK293-TLR7, 100 nM ASO, then resiquimod
CDKN2B-AS1 [2] = test: HEK293-TLR8, 100 nM ASO, then resiquimod

Substance	TLR7 signal (NF-kB luciferase) (% of resiquimod alone) (CDKN2B-AS1 [1])	TLR8 potentiation (NF-kB luciferase) (fold of resiquimod alone) (CDKN2B-AS1 [2])
RNA1{m(A)[sp].m(G)[sp].m(G)[sp].m(C)[sp].m(C)[sp].d(T)[sp].d(C)[sp].d(C)[sp].d(A)[sp].d(G)[sp].d(T)[sp].d(G)[sp].d(T)[sp].d(C)[sp].d(T)[sp].m(U)[sp].m(C)[sp].m(U)[sp].m(C)[sp].m(C)}$$$$	44.7	2.19
RNA1{m(A)[sp].m(G)[sp].m(U)[sp].m(C)[sp].m(U)[sp].d(C)[sp].d(C)[sp].d(A)[sp].d(T)[sp].d(G)[sp].d(T)[sp].d(C)[sp].d(C)[sp].d(C)[sp].d(A)[sp].m(G)[sp].m(G)[sp].m(C)[sp].m(C)[sp].m(U)}$$$$	35.8	1.64
RNA1{m(A)[sp].m(G)[sp].m(U)[sp].m(G)[sp].m(G)[sp].d(C)[sp].d(A)[sp].d(C)[sp].d(A)[sp].d(T)[sp].d(A)[sp].d(C)[sp].d(C)[sp].d(A)[sp].d(C)[sp].m(A)[sp].m(C)[sp].m(C)[sp].m(C)[sp].m(U)}$$$$	42	2.24
RNA1{m(A)[sp].m(U)[sp].m(A)[sp].m(U)[sp].m(C)[sp].d(T)[sp].d(G)[sp].d(C)[sp].d(T)[sp].d(G)[sp].d(C)[sp].d(C)[sp].d(C)[sp].d(A)[sp].d(C)[sp].m(C)[sp].m(U)[sp].m(U)[sp].m(C)[sp].m(U)}$$$$	47.5	2.55
RNA1{m(A)[sp].m(U)[sp].m(U)[sp].m(U)[sp].m(C)[sp].d(C)[sp].d(A)[sp].d(C)[sp].d(A)[sp].d(T)[sp].d(G)[sp].d(C)[sp].d(C)[sp].d(C)[sp].d(A)[sp].m(G)[sp].m(U)[sp].m(G)[sp].m(U)[sp].m(U)}$$$$	32	2.06
RNA1{m(C)[sp].m(A)[sp].m(G)[sp].m(G)[sp].m(C)[sp].d(C)[sp].d(T)[sp].d(C)[sp].d(C)[sp].d(A)[sp].d(G)[sp].d(T)[sp].d(G)[sp].d(T)[sp].d(C)[sp].m(U)[sp].m(U)[sp].m(C)[sp].m(U)[sp].m(C)}$$$$	54.1	2.02
RNA1{m(C)[sp].m(A)[sp].m(G)[sp].m(U)[sp].m(C)[sp].d(T)[sp].d(C)[sp].d(C)[sp].d(A)[sp].d(T)[sp].d(G)[sp].d(T)[sp].d(C)[sp].d(C)[sp].d(C)[sp].m(A)[sp].m(G)[sp].m(G)[sp].m(C)[sp].m(C)}$$$$	47.8	2.73
RNA1{m(C)[sp].m(A)[sp].m(G)[sp].m(U)[sp].m(G)[sp].d(T)[sp].d(T)[sp].d(T)[sp].d(T)[sp].d(T)[sp].d(A)[sp].d(A)[sp].d(T)[sp].d(T)[sp].d(T)[sp].m(U)[sp].m(G)[sp].m(U)[sp].m(A)[sp].m(G)}$$$$	62.7	3.18
RNA1{m(C)[sp].m(C)[sp].m(A)[sp].m(U)[sp].m(G)[sp].d(T)[sp].d(C)[sp].d(C)[sp].d(C)[sp].d(A)[sp].d(G)[sp].d(G)[sp].d(C)[sp].d(C)[sp].d(T)[sp].m(C)[sp].m(C)[sp].m(A)[sp].m(G)[sp].m(U)}$$$$	41.4	1.24
RNA1{m(C)[sp].m(C)[sp].m(U)[sp].m(A)[sp].m(G)[sp].d(A)[sp].d(A)[sp].d(A)[sp].d(G)[sp].d(A)[sp].d(A)[sp].d(G)[sp].d(C)[sp].d(A)[sp].d(A)[sp].m(A)[sp].m(G)[sp].m(A)[sp].m(U)[sp].m(U)}$$$$	57.2	3.58
RNA1{m(C)[sp].m(U)[sp].m(C)[sp].m(U)[sp].m(C)[sp].d(T)[sp].d(T)[sp].d(T)[sp].d(C)[sp].d(T)[sp].d(G)[sp].d(T)[sp].d(G)[sp].d(G)[sp].d(T)[sp].m(U)[sp].m(U)[sp].m(C)[sp].m(U)[sp].m(C)}$$$$	92.3	3.82
RNA1{m(C)[sp].m(U)[sp].m(U)[sp].m(C)[sp].m(A)[sp].d(C)[sp].d(A)[sp].d(T)[sp].d(C)[sp].d(C)[sp].d(A)[sp].d(A)[sp].d(G)[sp].d(A)[sp].d(C)[sp].m(A)[sp].m(G)[sp].m(C)[sp].m(A)[sp].m(A)}$$$$	55	2.26
RNA1{m(C)[sp].m(U)[sp].m(U)[sp].m(G)[sp].m(U)[sp].d(G)[sp].d(A)[sp].d(A)[sp].d(A)[sp].d(A)[sp].d(G)[sp].d(A)[sp].d(T)[sp].d(T)[sp].d(A)[sp].m(U)[sp].m(C)[sp].m(U)[sp].m(U)[sp].m(C)}$$$$	85.3	3.89
RNA1{m(G)[sp].m(A)[sp].m(A)[sp].m(A)[sp].m(A)[sp].d(G)[sp].d(A)[sp].d(T)[sp].d(T)[sp].d(A)[sp].d(T)[sp].d(C)[sp].d(T)[sp].d(T)[sp].d(C)[sp].m(U)[sp].m(U)[sp].m(U)[sp].m(U)[sp].m(A)}$$$$	34.4	1.31
